What all share (format): cell-based
Test [1] has as its target T1, OR10J5 olfactory receptor (Homo sapiens, UniProt Q8NHC4).
T1 construct: Flag; Rho (rhodopsin-derived tag); expressed in transfected cells
T1 sequence (Q8NHC4 1-309): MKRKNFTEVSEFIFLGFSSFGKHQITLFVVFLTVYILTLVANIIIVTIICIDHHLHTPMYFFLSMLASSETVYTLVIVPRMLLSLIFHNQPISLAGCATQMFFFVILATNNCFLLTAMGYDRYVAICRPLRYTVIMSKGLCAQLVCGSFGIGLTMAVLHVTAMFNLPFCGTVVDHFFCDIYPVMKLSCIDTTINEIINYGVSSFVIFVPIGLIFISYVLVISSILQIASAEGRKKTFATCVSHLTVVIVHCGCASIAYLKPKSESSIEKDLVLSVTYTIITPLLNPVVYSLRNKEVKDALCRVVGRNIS
Kind of test: Inhibition of LYRAL® (EC80)-induced receptor activity, screen and dose-response. As to conditions: dose-response in the presence of EC80 LYRAL®. As to the method: Using the same cell-based assay described herein, OR10J5 activity inhibition was tested with binary mixtures of LYRAL® and a test compound. Volatile compounds were used to create binary mixtures of each compound with LYRAL® at approximately EC80, a concentration eliciting approximately 80% of full activity level of OR10J5 by itself. An activation cell-based assay was used for the initial inhibitor candidate identification as disclosed in WO2019101813.
The binary mixtures were created by mixing a LYRAL® stock solution with a stock solution of each test compound to a final concentration XXX and 300 μM, respectively. Stock solutions were made of compounds dissolved in pure DMSO. Each mixture was presented to a cell line expressing the OR10J5 olfactory receptor. Similar to the enhancement screening conditions, the final concentration of DMSO in each binary mixture was 0.1%, and had no visible effect on the cells. The resulting activation was measured and compared to LYRAL® alone (defining the activity baseline of the assay, ˜EC80). […] The quality of the HTS process was determined and the window (activity range between EC80 and the DMSO baseline) variability and signal reliability were assessed by calculating the Z′ value of each plate.
Candidate inhibitors identified were tested in a dose-response inhibition experiments to confirm the inhibition properties of the potential candidates. The dose-response curve in the presence of EC80 LYRAL® concentration (generating 80% activity on OR10J5) was assessed for dose-dependent activity level decrease. […] Both potency and efficacy of the confirmed inhibitors were evaluated by calculating their half-maximal inhibition concentration (IC50) relative to EC80 LYRAL and the amount of inhibition (Span), respectively. The IC50 values indicate the inhibition level with respect to the potency. The Span values indicate the inhibition level with respect to the inhibition efficacy. The IC50 values are used to rank order the compounds from strongest to weakest inhibitors of OR10J5 (FIG. 9a-d).

Test [2] has as its target T1, OR10J5 olfactory receptor. Description: Single-point binary mixture enhancement screen (LYRAL® at about EC20 + test compound), cAMP HTRF. As to conditions: binary mixture of 4.6 μM LYRAL® and 300 μM test compound, HEK293T. Here is the method: A dose response curve showing the activation of OR10J5 in response to the floral muguet compound 3-(4-hydroxy-4-methylpentyl)cyclohex-3-ene-1-carbaldehyde, 4-(4-hydroxy-4-methylpentyl)cyclohex-3-ene-1-carbaldehyde or a mixture thereof (sold under the tradename LYRAL®, hereinafter referred to as “LYRAL®”) is shown in FIG. 1. Using a cell-based assay, OR10J5 activity was tested in a HEK293T cell line wherein the endogenous chaperone RTP1 gene has been activated and the odorant receptor chaperone was expressed according to the methods disclosed in International Patent Application Publication No. WO2016/201153 A1. […]
A library of volatile compounds was used to create binary mixtures of each compound with LYRAL® at approximately EC20, a concentration eliciting only approximately 20% of full activity level of OR10J5 by itself. […] Single binary mixture-induced receptor activity was detected by measuring the cAMP increase in the cytosol using an HTRF (Homogenous Time-Resolved Fluorescence unit) based kit (CisBio, cAMP dynamic 2 kit, 62AM4PEJ). […]
The resulting activation was then measured and compared to LYRAL® alone (defining the baseline of the enhancement assay). The quality of the HTS process was determined and the window variability and signal reliability were assessed by calculating the Z′ value of each plate. […]

In test [3] the target is T1, OR10J5 olfactory receptor. Kind of test: Dose-response confirmation of enhancer candidates, alone and with EC20 LYRAL®. As to conditions: response to LYRAL® raised beyond EC20 without measurable intrinsic activity. Here is the method: A dose response curve showing the activation of OR10J5 in response to the floral muguet compound 3-(4-hydroxy-4-methylpentyl)cyclohex-3-ene-1-carbaldehyde, 4-(4-hydroxy-4-methylpentyl)cyclohex-3-ene-1-carbaldehyde or a mixture thereof (sold under the tradename LYRAL®, hereinafter referred to as “LYRAL®”) is shown in FIG. 1. Using a cell-based assay, OR10J5 activity was tested in a HEK293T cell line wherein the endogenous chaperone RTP1 gene has been activated and the odorant receptor chaperone was expressed according to the methods disclosed in International Patent Application Publication No. WO2016/201153 A1. The Flag-Rho-tagged receptor was co-transfected with the olfactory canonical G-protein Golf and was exposed to a binary mixture of a single concentration of LYRAL® and a test compound.
A library of volatile compounds was used to create binary mixtures of each compound with LYRAL® at approximately EC20, a concentration eliciting only approximately 20% of full activity level of OR10J5 by itself. An activation cell-based assay was used for the initial enhancer candidate identification as disclosed in WO2019122236. Single binary mixture-induced receptor activity was detected by measuring the cAMP increase in the cytosol using an HTRF (Homogenous Time-Resolved Fluorescence unit) based kit (CisBio, cAMP dynamic 2 kit, 62AM4PEJ).
The 37 candidates remaining in Table 2 were identified and were tested in two parallel dose-response experiments to confirm the true enhancement properties of the potential candidates. First, a dose-response of each individual candidate was performed to determine if it was an agonist by itself. Second, the same candidate dose-response curve in the presence of EC20 LYRAL® concentration (generating 20% activity on OR10J5) was assessed for activity level increase.

For test [4], the target named is T2, OR10J5 (Homo sapiens, UniProt Q8NHC4).
T2 construct: Flag; Rho (rhodopsin-derived tag); expressed in transfected cells
T2 sequence (Q8NHC4 1-309): T1 sequence (Q8NHC4 1-309)
Description: LYRAL® dose-response with serial enhancer concentrations, allosteric EC50 shift model. As to conditions: for α (cooperativity factor): enhancer 0 to 600 μM, allosteric EC50 shift equation (Prism7), α>1 indicates positive allosteric modulation; for Kb: read-out: KB (equilibrium dissociation constant of the enhancer). As to the method:
Functional dose-response experiments were performed to reveal the allosteric nature of the interaction between 3-(1,3-benzodioxol-5-yl)-2-methylpropanal, 3-(4-methylcyclohex-3-en-1-yl)butanal, 2,6-dimethylhept-5-enal and heptanal and OR10J5. The level of enhancement of OR10J5's activation was evaluated at distinct concentrations of each enhancer. Using the same cell-based assay described earlier, dose response curves of OR10J5 to LYRAL® in the presence of serial concentrations of the enhancers spanning from 0 to 600 μM were performed, see FIG. 5. The curves were obtained by applying the simplified Allosteric EC50 shift effect equation (available in Prism7) derived from the ternary complex interaction model. The enhancement levels recorded were not linearly dependent on the concentration of the enhancer, and the following key parameters values for α (the cooperativity factor) and KB (the equilibrium dissociation constant of the enhancer) were obtained from the model for each enhancer: 3-(1,3-benzodioxol-5-yl)-2-methylpropanal, α=6.3 and KB=10 μM; 3-(4-methylcyclohex-3-en-1-yl)butanal, α=7.5 and KB=15 μM; 2,6-dimethylhept-5-enal, α=4.1 and KB=16 μM; and heptanal; α=3.2 and KB=51 μM. α>1 is indicative of positive allosteric modulation.

For test [5], the target named is T2, OR10J5. Kind of test: (+−)-2,5-dimethyl-2-indanmethanol dose-response with a steady concentration of test compound. Here is the method: OR10J5 activity enhancement was tested with an additional agonist and with one of the test compounds and conditions described in the Examples above. Dose response curves to (+−)-2,5-dimethyl-2-indanmethanol was obtained in the presence of a steady concentration of the test compound and compared to a dose-response curve of the agonist alone. The resulting enhancement was quantified by means of EC50-fold shift (potency increase) and the efficacy span ratio (efficacy increase) as described above.

The text below walks through data of patent publication US11951197B2, “Use of volatile compounds to modulate the perception of floral muguet” (FIRMENICH SA, priority 2018, dated 2024).

With `CCOC(=O)C(=O)C(C)CC` (racemic) [(+−)-ethyl 3-methyl-2-oxopentanoate], in test [1], the “inhibition of the OR10J5 response to LYRAL®” value (“inhibition” for short) was “decreased the response”.

Regarding `C[C@@H]1C/C=C\CCCCCCCCCC(=O)C1` [compound 2], the “OR10J5 olfactory receptor agonists among screen hits” value in test [2] is given as “agonists”.

For `CCc1ccc(C=O)cc1` [4-ethylbenzaldehyde], the “enhancement of OR10J5 LYRAL® activation (true enhancer)” value (shortened to “enhancement”) in test [3] is listed as “potent enhancement”.

For `CCCc1ccc2c(c1)OCC(=O)CO2` [7-propyl-2H,4H-1,5-benzodioxepin-3-one], in test [1], the “inhibition” value is recorded as “decreased the response”.

Turning to `CC(C)=CCC[C@@H](C)CC=O` [(3R)-3,7-dimethyloct-6-enal], the “enhancement” value in test [3] is on record as “potent enhancement”.

Regarding `CCCCCCC=O` [heptanal], the “enhancement” value in test [3] is on record as “potent enhancement”. Also, on OR10J5 [4], the “α (cooperativity factor)” value is 3.2 and the Kb is 51 µM.

As for `C/C=C/C=O` [(E)-but-2-enal], the “enhancement” value in test [3] is “potent enhancement”.

With `Cc1ccc(CC(C)C=O)cc1` (racemic) [2-methyl-3-(4-methylphenyl)propanal], in test [3], the “enhancement” value is given as “potent enhancement”.

`O=Cc1ccccc1` [benzaldehyde]: the “enhancement” value in test [3] is on record as “potent enhancement”.

As for `C=C1CC[C@@H]2O[C@]2(C)CC[C@@H]2[C@@H]1CC2(C)C` [(−)-(1R,4R,6S,10S)-4,12,12-trimethyl-9-methylene-5-oxatricyclo[8.2.0.0^4,6]dodecane], the “inhibition” value in test [1] is recorded as “decreased the response”.

On to `Cc1ccc2c(c1)CC(C)(CO)C2` (racemic) [(+−)-2,5-dimethyl-2-indanmethanol, reference compound], for which, at OR10J5 [5], the “agonist character at OR10J5” value was “partial agonist”.

As to `CC(C=O)c1ccccc1` (centres unmarked) [2-phenylpropanal], the “enhancement” value in test [3] is recorded as “potent enhancement”.

Regarding `CC(C)c1ccc(C=O)cc1` [4-Propan-2-ylbenzaldehyde], the “enhancement” value in test [3] is “potent enhancement”.

Consider “3,5,6-Trimethyl-3-Cyclohexene-1-Carbaldehyde + 2,4,6-Trimethyl-3-Cyclohexene-1-Carbaldehyde”, for which the “enhancement” value in test [3] is “potent enhancement”.

For the compound `Cc1cccc(C=O)c1` [3-methylbenzaldehyde], the “enhancement” value in test [3] was “potent enhancement”.

`CC1=CCCC2(C)OC2CCC(C)=CCC1` (centres unmarked) [trimethyl-13-oxabicyclo-[10.1.0]-trideca-4,8-diene]: in test [1], the “inhibition” value was “decreased the response”.

For the compound `CCCCCCCC=O` [octanal], in test [3], the “enhancement” value is recorded as “potent enhancement”.

`CC1=CC(C)C(C=O)C(C)C1` (centres unmarked) [2,4,6-trimethyl-3-cyclohexene-1-carbaldehyde]: the “enhancement” value in test [3] is listed as “potent enhancement”.

On to `CCCCCC=O` [hexanal], for which, in test [3], the “enhancement” value is listed as “potent enhancement”.

Regarding `COC(C)(C)CCCC(C)C=O` (racemic) [6-methoxy-2,6-dimethylheptanal], in test [3], the “enhancement” value was “potent enhancement”.

As to `CCCCCC/C=C/C=O` [(E)-non-2-enal], the “enhancement” value in test [3] is reported as “potent enhancement”.

Turning to `CC(C)=CCCC(C)C=O` (racemic) [2,6-dimethylhept-5-enal], in test [3], the “enhancement” value is “potent enhancement”. On OR10J5 [4], the “α (cooperativity factor)” value is on record as 4.1 and the Kb came to 16 µM.

For the compound “(+−)-3-(4-Methyl-3-penten-1-yl)-3-cyclohexene-1-carbaldehyde + (+−)-4-(4-Methyl-3-penten-1-yl)-3-cyclohexene-1-carbaldehyde”, the “enhancement” value in test [3] is reported as “potent enhancement”.

In the case of `COC(=O)c1ccccc1/N=C/c1ccccc1` [compound 15], the “OR10J5 olfactory receptor agonists among screen hits” value in test [2] was “agonists”.

As to `CCCCCCC/C=C/C=O` [(E)-dec-2-enal], the “enhancement” value in test [3] was “potent enhancement”.
